{
  "source": "patent US4200635A",
  "about": "“Antibacterially active amides” (Beecham Group Limited, priority 1977, dated 1980)",
  "key": {"[1]": {"test_system": "Pasteurella multocida 1633", "assay": "MIC, serial dilution in nutrient agar, human bacteria", "type": "cell-based", "conditions": "nutrient agar containing 5% chocolated horse blood"}, "[2]": {"test_system": "Haemophilus influenzae Q1", "assay": "MIC, serial dilution in nutrient agar, human bacteria", "type": "cell-based", "conditions": "nutrient agar containing 5% chocolated horse blood"}, "[3]": {"test_system": "Haemophilus influenzae Wy21", "assay": "MIC, serial dilution in nutrient agar, human bacteria", "type": "cell-based", "conditions": "Haemophilus influenzae Wy21; nutrient agar containing 5% chocolated horse blood; read-out: M.I.C."}, "[4]": {"test_system": "Neisseria flavescens 8263", "assay": "MIC, serial dilution in nutrient agar, human bacteria", "type": "cell-based", "conditions": "nutrient agar containing 5% chocolated horse blood"}, "Bacillus subtilis 6633": {"test_system": "Bacillus subtilis 6633", "assay": "MIC, serial dilution in nutrient agar, human bacteria", "type": "cell-based", "conditions": "Bacillus subtilis 6633; nutrient agar containing 5% chocolated horse blood; read-out: M.I.C."}, "Staph. aureus Oxford": {"test_system": "Staph. aureus Oxford", "assay": "MIC, serial dilution in nutrient agar, human bacteria", "type": "cell-based", "conditions": "Staphylococcus aureus; Staph. aureus Oxford; nutrient agar containing 5% chocolated horse blood; read-out: M.I.C."}, "Staph. aureus Russell": {"test_system": "Staph. aureus Russell", "assay": "MIC, serial dilution in nutrient agar, human bacteria", "type": "cell-based", "conditions": "Staphylococcus aureus; Staph. aureus Russell; nutrient agar containing 5% chocolated horse blood; read-out: M.I.C."}, "Strep. pneumoniae CN33": {"test_system": "Strep. pneumoniae CN33", "assay": "MIC, serial dilution in nutrient agar, human bacteria", "type": "cell-based", "conditions": "Streptococcus pneumoniae; Strep. pneumoniae CN33; nutrient agar containing 5% chocolated horse blood; read-out: M.I.C."}, "Bord. bronchiseptica BO9": {"test_system": "Bord. bronchiseptica BO9", "assay": "MIC, veterinary bacteria", "type": "cell-based", "conditions": "Bordetella bronchiseptica, BO9"}, "Past. multocida PAI": {"test_system": "Past. multocida PAI", "assay": "MIC, veterinary bacteria", "type": "cell-based", "conditions": "Pasteurella multocida; Past. multocida PAI; read-out: M.I.C."}, "Past. haemolytica PA5": {"test_system": "Past. haemolytica PA5", "assay": "MIC, veterinary bacteria", "type": "cell-based", "conditions": "Mannheimia haemolytica, PA5"}, "Staph. aureus B4": {"test_system": "Staph. aureus B4", "assay": "MIC, veterinary bacteria", "type": "cell-based", "conditions": "Staphylococcus aureus; Staph. aureus B4; read-out: M.I.C."}, "Staph. aureus 152": {"test_system": "Staph. aureus 152", "assay": "MIC, veterinary bacteria", "type": "cell-based", "conditions": "Staphylococcus aureus"}, "Strep. uberis SPU 1": {"test_system": "Strep. uberis SPU 1", "assay": "MIC, veterinary bacteria", "type": "cell-based", "conditions": "Streptococcus uberis, SPU1; Strep. uberis SPU 1; read-out: M.I.C."}, "[5]": {"test_system": "Strep. dysgalactiae SPD 1", "assay": "MIC, veterinary bacteria", "type": "cell-based", "conditions": "Streptococcus dysgalactiae, SPD1; Strep. dysgalactiae SPD 1; read-out: M.I.C."}, "M. dispar NCTC 10125": {"test_system": "M. dispar NCTC 10125", "assay": "in vitro MIC, anti-mycoplasmal activity", "type": "cell-based", "conditions": "Friis' broth, microtiter method", "description": "(§1) Tables 3 and 4 show the in vitro MIC values (μg/ml) of the compounds of Examples 1 to 9 against a number of mycoplasma organisms, determined in Friis' broth using the microtiter method."}, "M. fermentans MWKL4": {"test_system": "M. fermentans MWKL4", "assay": "in vitro MIC, anti-mycoplasmal activity", "type": "cell-based", "conditions": "Mycoplasmopsis fermentans, Friis' broth, microtiter method", "description": "as §1"}, "M. pulmonis JB": {"test_system": "M. pulmonis JB", "assay": "in vitro MIC, anti-mycoplasmal activity", "type": "cell-based", "conditions": "Mycoplasmopsis pulmonis, Friis' broth, microtiter method", "description": "as §1"}, "[6]": {"test_system": "M. suipneumoniae J2206/183b", "assay": "in vitro MIC, anti-mycoplasmal activity", "type": "cell-based", "conditions": "Mesomycoplasma hyopneumoniae, Friis' broth, microtiter method", "description": "as §1"}, "M. pneumoniae 427a": {"test_system": "M. pneumoniae 427a", "assay": "in vitro MIC, anti-mycoplasmal activity", "type": "cell-based", "conditions": "Mycoplasmoides pneumoniae, Friis' broth, microtiter method"}, "[7]": {"test_system": "certain Gram-positive and Gram-negative organisms", "conditions": "statement about monic acid A and its esters, earlier British applications; cited from earlier work"}},
  "data": [
    {"smiles": "COC(=O)CNC(=O)C=C(C)CC1OCC(CC2OC2C(C)C(C)O)C(O)C1O", "note": "(stereo not drawn) [Example 3, Methoxycarbonylmethylamide of monic acid A]", "values": [
      {"measurement": "MIC", "setting": "[1]", "result": 12.5, "unit": "µg/mL"},
      {"measurement": "MIC", "setting": "[2]", "result": 1.2, "unit": "µg/mL"},
      {"measurement": "MIC", "setting": "[3]", "result": 1.2, "unit": "µg/mL"},
      {"measurement": "MIC", "setting": "[4]", "result": 25, "unit": "µg/mL"},
      {"measurement": "MIC", "setting": "Bacillus subtilis 6633", "result": 25, "unit": "µg/mL"},
      {"measurement": "MIC", "setting": "Staph. aureus Oxford", "result": 25, "unit": "µg/mL"},
      {"measurement": "MIC", "setting": "Staph. aureus Russell", "result": 125, "unit": "µg/mL"},
      {"measurement": "MIC", "setting": "Strep. pneumoniae CN33", "result": 25, "unit": "µg/mL"},
      {"measurement": "MIC", "setting": "Bord. bronchiseptica BO9", "result": 5, "unit": "µg/mL"},
      {"measurement": "MIC", "setting": "Past. multocida PAI", "result": 10, "unit": "µg/mL"},
      {"measurement": "MIC", "setting": "Past. haemolytica PA5", "result": 5, "unit": "µg/mL"},
      {"measurement": "MIC", "setting": "Staph. aureus B4", "result": 40, "unit": "µg/mL"},
      {"measurement": "MIC", "setting": "Staph. aureus 152", "result": "> 80", "unit": "µg/mL"},
      {"measurement": "MIC", "setting": "Strep. uberis SPU 1", "result": 5, "unit": "µg/mL"},
      {"measurement": "MIC", "setting": "[5]", "result": 1.25, "unit": "µg/mL"},
      {"measurement": "MIC", "setting": "M. dispar NCTC 10125", "result": "< 0.5", "unit": "µg/mL"},
      {"measurement": "MIC", "setting": "M. fermentans MWKL4", "result": "< 0.5", "unit": "µg/mL"},
      {"measurement": "MIC", "setting": "M. pulmonis JB", "result": 62.5, "unit": "µg/mL"},
      {"measurement": "MIC", "setting": "[6]", "result": 7.8, "unit": "µg/mL"},
      {"measurement": "MIC", "setting": "M. pneumoniae 427a", "result": 250, "unit": "µg/mL"}
    ]},
    {"smiles": "CC(=CC(=O)O)CC1OCC(CC2OC2C(C)C(C)O)C(O)C1O", "note": "(stereo not drawn) [monic acid A]", "values": [
      {"measurement": "antibacterial activity", "setting": "[7]", "result": "does not appear to have antibacterial activity"}
    ]}
  ]
}
